Experimental data published in patent US9034866B2 (Genentech, Inc., priority 2012, dated 2015).
Where two headings read alike, the source gives them in different places.

What was measured:
[1] = tested on: REL-A (p65) nuclear translocation in HeLa cells; test: REL-A nuclear translocation assay (classical NF-kB signaling), high content imaging; type: cell-based; conditions: Homo sapiens, compounds 4.5 hours, then 10 ng/mL TNF-α for 30 minutes, read-out: REL-A HeLa Transloc Assay (IC50)
Description: (§1) (2) A second set of cell assay are used to define the selectivity of NIK inhibitors toward inhibition of classical vs. non-classical NF-kB signaling and rely on quantification of the nuclear translocation of p52 (NF-kB2) and REL-A (p65) using high content cellular imaging. For the p52 (non-classical NF-kB signaling) nuclear translocation assay, HeLa cells are treated with different concentrations of compounds (0.2% DMSO final) in medium containing 10% fetal bovine serum and then stimulated with 100 ng/mL, of an anti-lymphotoxin beta receptor antibody (R&D Systems) for 5 hours. In the REL-A nuclear translocation assay, HeLa cells are incubated with compounds (0.2% DMSO final) for 4.5 hours in medium containing 10% fetal bovine serum before stimulating them with 10 ng/mL tumor necrosis factor (TNF)-α (R&D Systems) for 30 minutes. Cells are fixed with 4% paraformaldehyde, permeabilized by adding 0.1% Triton X-100 in phosphate buffered saline, and then are incubated with either 2 ug/mL anti-p52 antibody (Millipore) or 400 ng/mL anti-REL-A (p65) antibody (Santa Cruz Biotechnology). Finally, the cells are incubated with an Alexa488-labeled secondary antibody (Invitrogen) and DRAQ5 DNA stain (Biostatus). Imaging is carried out using an Opera reader (Perkin Elmer) and data are analyzed with the aid of Acapella software (Perkin Elmer). The p52 or REL-A translocation into the nucleus is quantified by the ratio of the nuclear to cytoplasmic signal intensity. […] The compounds in listed in Table 1 have the corresponding inhibitory value (IC50 in micromolar) for NIK p52 Translocation Assay as set forth in Table 2.
The compounds in listed in Table 1 has the corresponding inhibitory value (IC50 in micromolar) for NIK RelA Translocation Assay as set forth in Table 2.

[2] = tested on: p52 (NF-kB2) nuclear translocation in HeLa cells; test: p52 nuclear translocation assay (non-classical NF-kB signaling), high content imaging; type: cell-based; conditions: 100 ng/mL anti-lymphotoxin beta receptor antibody for 5 hours, read-out: p52 HeLa Transloc Assay (IC50)
Description: as §1

| SMILES | IC50 ([1]; HeLa) | IC50 ([2]; Homo sapiens, HeLa, 5 h) | IC50 [1] | IC50 ([2]; Homo sapiens) | IC50 [2] |
| --- | --- | --- | --- | --- | --- |
| CNC(=O)c1c(C(N)=O)nc2n1CCOc1ccc(C#C[C@]3(O)CCN(C)C3=O)cc1-2 (racemic) [Example 419, (±)-9-fluoro-10-(3-hydroxy-3-methyl-but-1-ynyl)-3-[(3-hydroxypyrrolidin-1-yl)methyl]-5,6,7,12-tetrahydro-5,7-methanobenzo[c]imidazo[1,2-a]azepine-2-carboxamide] | > 20 µM | 0.317 µM |  |  |  |
| CN1CC[C@@](O)(C#Cc2ccc3c(c2)-n2nc(C(N)=O)c(C(F)(F)F)c2CCO3)C1=O (racemic) [Example 500] | > 20 µM | 0.381 µM |  |  |  |
| Cc1cc([C@](C)(O)C#Cc2cc3c(cc2F)OCCc2sc(C(N)=O)nc2-3)no1 [Example 39] | 20 µM | 0.038 µM |  |  |  |
| NC(=O)c1nc2c(s1)CCOc1cc(F)c(C#CC3(O)CCCC3)cc1-2 [Example 40, 8-fluoro-9-(1-hydroxy-cyclopentyl-ethynyl)-4,5-dihydro-6-oxa-3-thia-1-aza-benzo[e]azulene-2-carboxylic acid amide] |  |  | 20 µM | 0.068 µM |  |
| CC(O)(C#Cc1cc2c(cc1F)OCCc1sc(C(N)=O)nc1-2)c1ccccn1 (stereo not shown) [Example 93] | 20 µM | 0.344 µM |  |  |  |
| Cc1cc([C@](C)(O)C#Cc2cc3c(cc2F)OCCn2c-3nc(C(N)=O)c2C(=O)NCC#N)no1 [Example 107] |  |  | 20 µM | 0.0831 µM |  |
| CC(C)(O)C#Cc1cc2c(cc1F)C1CC(C1)n1c-2nc(C(N)=O)c1C1CC1 [Example 195, 3-cyclopropyl-9-fluoro-10-(3-hydroxy-3-methyl-but-1-ynyl)-5,6,7,12-tetrahydro-5,7-methanobenzo[c]imidazo[1,2-a]azepine-2-carboxamide] | > 20 µM | 2.4 µM |  |  |  |
| CC(C)(O)C#Cc1cc2c(cc1F)C1CC(C1)n1c-2nc(C(N)=O)c1C(C)(C)O [Example 248, 9-fluoro-10-(3-hydroxy-3-methyl-but-1-ynyl)-3-(1-hydroxy-1-methyl-ethyl)-5,6,7,12-tetrahydro-5,7-methanobenzo[c]imi-dazo[1,2-a]azepine-2-carboxamide] |  |  | > 20 µM | 1.4 µM |  |
| Cc1nc([C@](C)(O)C#Cc2cc3c(cc2F)OC[C@H](N(C)C)c2sc(C(N)=O)nc2-3)no1 [Example 258, (S)-4-(dimethylamino)-8-fluoro-9-[3-(R)-hydroxy-3-(5-methyl-1,2,4-oxadiazol-3-yl)but-1-ynyl]-4,5-dihydro-[1]benzoxe-pino[5,4-d]thiazole-2-carboxamide] | > 20 µM | 2.9 µM |  |  | 2 µM |
| Cc1nc([C@](C)(O)C#Cc2ccc3c(c2)-c2nc(C(N)=O)c(Cc4ccnn4C)n2C2CC3C2)no1 [Example 260, 10-[(3R)-3-hydroxy-3-(5-methyl-1,2,4-oxadiazol-3-yl)but-1-ynyl]-3-[(2-methyl-pyrazol-3-yl)methyl]-5,6,7,12-tetrahydro-5,7-methanobenzo[c]imidazo[1,2-a]aze-pine-2-carboxamide] | > 20 µM | 4.8 µM |  |  |  |
| CN1CC[C@@](O)(C#Cc2ccc3c(c2)-c2nc(C(N)=O)sc2CCO3)C1=O [Example 276] | 20 µM | 0.0946 µM |  |  |  |
| CC(C)(O)Cn1cc(-c2c(C(N)=O)nc3n2C2CC(C2)c2ccc(C#CC4(O)CCCC4)cc2-3)cn1 [Example 289] | > 20 µM | 2.7 µM |  |  |  |
| CN1CC[C@@](O)(C#Cc2cc3c(cc2F)C2CC(C2)n2cc(C(N)=O)nc2-3)C1=O [Example 300] | > 20 µM | 3 µM |  |  |  |
| Cn1nccc1C(O)c1c(C(N)=O)nc2n1C1CC(C1)c1cc(F)c(C#CC3(O)CCCC3)cc1-2 (stereo not shown) [Example 304, 9-fluoro-10-[2-(1-hydroxycyclopen-tyl)ethynyl]-3-[hydroxy-(2-methylpyrazol-3-yl)methyl]-5,6,7,12-tetrahydro-5,7-meth-anobenzo[c]imidazo[1,2-a]azepine-2-car-boxamide] | > 20 µM | 1.1 µM |  |  |  |
| CN1CC[C@@](O)(C#Cc2ccc3c(c2)-c2nc(C(N)=O)c(Cc4ccccc4Cl)n2C2CC3C2)C1=O [Example 308] | 20 µM | 1.5 µM |  |  |  |
| Cc1c(C(N)=O)nc2n1C1CC(C1)c1cc(F)c(C#C[C@]3(O)CCN(C)C3=O)cc1-2 [Example 331, 9-fluoro-10-[2-[(3R)-3-hydroxy-1-meth-yl-2-oxo-pyrrolidin-3-yl]ethynyl]-3-meth-yl-5,6,7,12-tetrahydro-5,7-methano-benzo[c]imidazo[1,2-a]azepine-2-carboxamide] | > 20 µM | 1 µM |  |  |  |
| CN1CC[C@@](O)(C#Cc2cc3c(cc2F)C2CC(C2)n2c-3nc(C(N)=O)c2C2CC2)C1=O [Example 333, 3-cyclopropyl-9-fluoro-10-[2-[(3R)-3-hy-droxy-1-methyl-2-oxo-pyrrolidin-3-yl]ethynyl]-5,6,7,12-tetrahydro-5,7-meth-anobenzo[c]imidazo[1,2-a]azepine-2-carboxamide] | > 20 µM | 2.2 µM |  |  |  |
| NC(=O)c1nc2n(c1C1CC1)C1CC(C1)c1cc(F)c(C#C[C@]3(O)CCNC3=O)cc1-2 [Example 338, 3-cyclopropyl-9-fluoro-10-[2-[(3R)-3-hy-droxy-2-oxo-pyrrolidin-3-yl]ethynyl]-5,6,7,12-tetrahydro-5,7-methano-benzo[c]imidazo[1,2-a]azepine-2-carboxamide] | > 20 µM | 3 µM |  |  |  |
| CNC(=O)c1c(C(N)=O)nc2n1C1CC(C1)c1ccc(C#CC3(O)CCC3)cc1-2 [Example 361, 10-[2-(1-hydroxycyclobutyl)ethynyl]-N3-methyl-5,6,7,12-tetrahydro-5,7-meth-anobenzo[c]imidazo[1,2-a]azepine-2,3-dicarboxamide] | > 20 µM | 0.409 µM |  |  |  |
| CNC(=O)c1c(C(N)=O)nc2n1CCOc1cc(F)c(C#CC3(O)CCC3)cc1-2 [Example 362, 9-fluoro-10-[2-(1-hydroxycyclobutyl)ethy-nyl]-N3-methyl-5,6-dihydroimidazo[1,2-d][1,4]benzoxazepine-2,3-dicarbox-amide] | > 20 µM | 0.143 µM |  |  |  |
| Cc1cc([C@](C)(O)C#Cc2cc3c(cc2F)C2CC(C2)n2c-3nc(C(N)=O)c2CNC(=O)C2CC2)no1 [Example 363] |  |  | > 20 µM | 0.66 µM |  |
| NC(=O)c1cn2c(n1)-c1cc(C#CC3(O)CCC3)c(F)cc1C1CC2C1 [Example 364, 9-fluoro-10-[2-(1-hydroxycyclobutyl)ethy-nyl]-5,6,7,12-tetrahydro-5,7-methano-benzo[c]imidazo[1,2-a]azepine-2-carboxamide] | > 20 µM | 0.985 µM |  |  |  |
| CNC(=O)c1c(C(N)=O)nc2n1C1CC(C1)c1cc(F)c(C#CC3(O)CCC3)cc1-2 [Example 368, 9-fluoro-10-[2-(1-hydroxycyclobutyl)ethy-nyl]-N3-methyl-5,6,7,12-tetrahydro-5,7-methanobenzo[c]imidazo[1,2-a]azepine-2,3-dicarboxamide] | > 20 µM | 0.342 µM |  |  |  |
| NC(=O)c1cn2c(n1)-c1cc(C#CC3(O)CCC3)ccc1C1CC2C1 [Example 369, 10-[2-(1-hydroxycyclobutyl)ethynyl]-5,6,7,12-tetrahydro-5,7-methanobenzo[c]imi-dazo[1,2-a]azepine-2-carboxamide] |  |  | > 20 µM | 3.7 µM |  |
| CC(=O)N(Cc1c(C(N)=O)nc2n1C1CC(C1)c1cc(F)c(C#CC(C)(C)O)cc1-2)C(C)C [Example 371, 3-[[acetyl(isopropyl)amino]methyl]-9-fluoro-10-(3-hydroxy-3-methyl-but-1-ynyl)-5,6,7,12-tetrahydro-5,7-methano-benzo[c]imidazo[1,2-a]azepine-2-carboxamide] | > 20 µM | 1.9 µM |  |  |  |
| CC(C)(O)C#Cc1ccc2c(c1)-c1nc(C(N)=O)c(-c3nnc(C4CC4)s3)n1C1CC2C1 [Example 390, 9-fluoro-10-(3-hydroxy-3-methyl-but-1-ynyl)-3-(trifluoromethyl)-5,6,7,12-tetrahydro-5,7-methanobenzo[c]imidazo[1,2-a]azepine-2-carboxamide] | 9.5 µM | 1.5 µM |  |  |  |
| CN1CC[C@@](O)(C#Cc2ccc3c(c2)-c2nc(C(N)=O)sc2C(F)(F)CO3)C1=O [Example 406, 10-[(3R)-3-hydroxy-3-(5-methylisoxazol-3-yl)but-1-ynyl]-N3,N3-dimethyl-5,6,7,12-tetrahydro-5,7-methanobenzo[c]imidazo[1,2-a]azepine-2,3-dicarboxamide] | > 20 µM | 0.0761 µM |  |  |  |
